Experimental data reported in ChEMBL document CHEMBL6078678, “Unveiling the Antimycobacterial Potential of Novel 4-Alkoxyquinolines: Insights into Selectivity, Mechanism of Action, and In Vivo Exposure” (J Med Chem, 2024).
Converted amounts (≈) assume the structure as drawn.

What was measured:
[1] = (§1) Cytotoxicity against human HepG2 cells assessed as reduction in cell viability incubated for 72 hrs by MTT assay; format: toxicity, cell-based; conditions: HepG2 cells
[2] = test system: Mycobacterium tuberculosis; assay: microbe, parasite or virus in culture; conditions: H37Rv (ATCC 27294)
[3] = (§2) Cytotoxicity against African green monkey Vero cells assessed as reduction in cell viability incubated for 72 hrs by MTT assay; format: toxicity, cell-based; conditions: chlorocebus sabaeus, Vero cells
[4] = Aqueous solubility of compound in HCl at pH 1.2 incubated for 4 hrs by UHPLC-DAD analysis; format: physicochemical
[5] = (§3) Cytotoxicity against human HepG2 cells assessed as reduction in cell viability incubated for 72 hrs by neutral red uptake method; format: toxicity, cell-based; conditions: HepG2 cells
[6] = (§4) Cytotoxicity against African green monkey Vero cells assessed as reduction in cell viability incubated for 72 hrs by neutral red uptake method; format: toxicity, cell-based; conditions: chlorocebus sabaeus, Vero cells
HepG2 [7] = assay: as §3; format: toxicity, cell-based; conditions: hepg2, 72 h
HepG2 [8] = assay: as §1; format: toxicity, cell-based; conditions: hepg2, 72 h
Vero [9] = assay: as §4; format: toxicity, cell-based; conditions: chlorocebus sabaeus, vero, 72 h
[10] = Aqueous solubility of compound in NH4HCO3 at pH 9.1 incubated for 4 hrs by UHPLC-DAD analysis; format: physicochemical; conditions: NH4HCO3, pH 9.1
[11] = Aqueous solubility of compound in PBS at pH 7.4 incubated for 4 hrs by UHPLC-DAD analysis; format: physicochemical
Vero [12] = assay: as §2; format: toxicity, cell-based; conditions: chlorocebus sabaeus, vero, 72 h
[13] = Drug concentration in male CF1 mouse plasma at 300 mg/kg, po administered via gavage and measured after […] by UHPLC-DAD analysis; format: ADME, organism-based; conditions: time 0.25 hrs
[14] = Half-life in male CF1 mouse at 300 mg/kg, po administered via gavage and measured after 8 hrs by UHPLC-DAD analysis; format: ADME, organism-based; conditions: in vivo
[15] = Drug concentration in male CF1 mouse plasma at 300 mg/kg, po administered via gavage and measured after 1 hrs by UHPLC-DAD analysis; format: ADME, organism-based
[16] = Drug concentration in male CF1 mouse plasma at 300 mg/kg, po administered via gavage and measured after 4 hrs by UHPLC-DAD analysis; format: ADME, organism-based
[17] = Drug concentration in male CF1 mouse plasma at 300 mg/kg, po administered via gavage and measured after 8 hrs by UHPLC-DAD analysis; format: ADME, organism-based
[18] = Drug concentration in male CF1 mouse plasma at 300 mg/kg, po administered via gavage and measured after 0.5 hrs by UHPLC-DAD analysis; format: ADME, organism-based
Acinetobacter baumannii = format: functional; conditions: time 24 hrs
[19] = test system: Mycobacterium tuberculosis; format: functional, H37Rv (ATCC 27294), RAW264.7; conditions: dose 5 µM; time 5 day
[20] = Chemical stability of compound in 0.1 M HCl solution at pH 1.2 assessed as parent compound remaining at 10 uM measured after 24 hrs by HPLC-MS/MS analysis; format: physicochemical; conditions: read-out: Stability
[21] = Metabolic stability in rat liver microsomes assessed as intrinsic clearance at 2 uM measured upto 30 mins in presence of NADPH by HPLC-MS/MS analysis; format: ADME, Microsome; conditions: read-out: CLH
[22] = Permeability of compound at pH 7.4 at 10 uM measured after 5 hrs by PAMPA assay; format: ADME; conditions: read-out: permeability
Klebsiella pneumoniae = format: functional; conditions: time 24 hrs
[23] = Metabolic stability in rat liver microsomes assessed as half-life at 2 uM measured upto 30 mins in presence of NADPH by HPLC-MS/MS analysis; format: ADME, Microsome
[24] = Elimination rate constant in male CF1 mouse at 300 mg/kg, po administered via gavage and measured after 8 hrs by UHPLC-DAD analysis; format: ADME, organism-based; conditions: in vivo
[25] = Chemical stability of compound in PBS at pH 7.4 assessed as parent compound remaining at 10 uM measured after 24 hrs by HPLC-MS/MS analysis; format: physicochemical; conditions: read-out: Stability
[26] = test system: Mycobacterium tuberculosis; format: functional, H37Rv (ATCC 27294), RAW264.7; conditions: dose 1 µM; time 5 day
Staphylococcus aureus = format: functional; conditions: ATCC 25923, time 24 hrs
[27] = Chemical stability of compound in 0.1M NH4HCO3 solution at pH 9.1 assessed as parent compound remaining at 10 uM measured after 24 hrs by HPLC-MS/MS analysis; format: physicochemical; conditions: read-out: Stability
Escherichia coli = format: functional; conditions: ATCC 25922, time 24 hrs
[28] = Drug concentration in male CF1 mouse plasma at 300 mg/kg, po administered via gavage and measured after 0.75 hrs by UHPLC-DAD analysis; format: ADME, organism-based
[29] = test system: Mycobacterium tuberculosis; format: functional, H37Rv (ATCC 27294), RAW264.7; conditions: dose 1 µM; time 5 day; remark: listed apart in the source

| Compound | CC50 at 72 h [1] [µM] | MIC [2] [µM] | CC50 at 72 h [3] [µM] | solubility at 4 h [4] [µM] | CC50 at 72 h [5] [µM] | CC50 at 72 h [6] [µM] | further results |
| --- | --- | --- | --- | --- | --- | --- | --- |
| Cc1cc(OCCCNc2ccc(Br)cc2)c2cc(Cl)ccc2n1 | 0.3 | 1.55 (≈ 0.629 µg/mL) | < 1 | – | – | – | – |
| CCc1ccc(NCCCOc2cc(C)nc3ccc(OC)cc23)cc1 | – | 0.06 (≈ 0.021 µg/mL) | – | 2650 (≈ 929 µg/mL) | – | – | – |
| COc1ccc2nc(C)cc(OCCCNc3ccc(Br)cc3)c2c1 | 15.3 | 0.1 (≈ 0.0401 µg/mL) | > 20 | > 2500 | 16.8 | 12.8 | – |
| Cc1cc(OCCCNc2ccc(Cl)cc2)c2cc(Br)ccc2n1 | > 20 | – | – | > 2470 | > 20 | – | – |
| CCc1ccc(NCCCOc2cc(C)nc3ccc(Cl)cc23)cc1 | – | 0.03 (≈ 0.0106 µg/mL) | – | 200 (≈ 71 µg/mL) | – | – | CC50 (HepG2 [7]): Not_determined(Insoluble); CC50 (HepG2 [8]): Not_determined(Insoluble); CC50 (Vero [9]): Not_determined(Insoluble); solubility at 4 h [10]: 0.37 µM (≈ 0.131 µg/mL); solubility at 4 h [11]: 0.06 µM (≈ 0.0213 µg/mL); CC50 (Vero [12]): Not_determined(Insoluble) |
| COc1ccc2nc(C)cc(OCCCNc3ccc(I)cc3)c2c1 | 10.6 | 0.09 (≈ 0.0403 µg/mL) | 8.2 | > 2230 | 12.8 | 7.5 | – |
| CCc1ccc(NCCCOc2cc(CC)nc3ccc(Br)cc23)cc1 | > 20 | 0.1 (≈ 0.0413 µg/mL) | > 20 | – | 8.3 | 9.1 | – |
| CCc1ccc(NCCCOc2cc(C)nc3ccc(Br)cc23)cc1 | > 20 | – | > 20 | > 2500 | > 20 | – | concentration at […] [13]: 7.49 µM; half-life [14]: 4.3 h; concentration at 1 h [15]: 32.1 µM; concentration at 4 h [16]: 13.5 µM; concentration at 8 h [17]: 9.8 µM; concentration at 0.5 h [18]: 11.1 µM; MIC (Acinetobacter baumannii): > 20 µM; Activity [19]: 4.1 log10CFU; remaining at 24 h, 10 µM [20]: 100%; CLint scaled at 2 µM [21]: 58 mL/min/kg; Papp at 5 h, 10 µM [22]: 0.2 ×10⁻⁶ cm/s; MIC (Klebsiella pneumoniae): > 20 µM; half-life at 2 µM [23]: 7 min; k el at 8 h [24]: 4.44e-05 s⁻¹; remaining at 24 h, 10 µM [25]: 5.3%; Activity [26]: 3.9 log10CFU; MIC (Staphylococcus aureus): > 20 µM; remaining at 24 h, 10 µM [27]: 6%; MIC (Escherichia coli): > 20 µM; concentration at 0.75 h [28]: 15.7 µM |
| NNC(=O)c1ccncc1 [ISONIAZID] | – | – | – | – | – | – | Activity [29]: 2.25 log10CFU |
